In patent US11292792B2, “Tricyclic CRBN ligands and uses thereof” (Kymera Therapeutics, Inc., priority 2018, dated 2022):
pIC50: −log10 of the molar value.

These compounds were tested against His-tagged CRBN-DDB1 complex (Homo sapiens (Human), UniProt Q96SW2) (assay: Time-resolved fluorescence resonance energy transfer (TR-FRET) assay, displacement of Cy5-labeled thalidomide). Details: not given.
Format: binding
Procedure: Equal volumes of His-tagged CRBN-DDB1 complex (56 nM) was mixed with Eu-cryptate labeled Anti-6HIS-monoclonal antibody (50× dilution from the commercial stock solution, Vender: Cisbio, Cat. #61HI2KLA) in a final buffer containing 20 mM HEPES pH 7.0, 150 mM NaCl, 0.005% Tween-20. […] The mixture were incubated at room temperature for 1 hour. FRET signals were measured on an EnVision plate reader (Perkin Elmer) by exciting at 340 nm and recording emission at both 615 nm as no FRET control and 665 nm as the FRET signals with a 60 microsecond delay. FRET efficiency was calculated as the ratio of fluorescent signals at […]. Quantitative loss of FRET efficiency as a function of compound concentrations was fitted by a four-parameter Logistic Function using GraphPad Prism 7.0 and the IC50 values were reported for each compound.
The compound numbers correspond to the compound numbers in Table 1.

His-tagged CRBN-DDB1 complex, sequence (Q96SW2 whole entry): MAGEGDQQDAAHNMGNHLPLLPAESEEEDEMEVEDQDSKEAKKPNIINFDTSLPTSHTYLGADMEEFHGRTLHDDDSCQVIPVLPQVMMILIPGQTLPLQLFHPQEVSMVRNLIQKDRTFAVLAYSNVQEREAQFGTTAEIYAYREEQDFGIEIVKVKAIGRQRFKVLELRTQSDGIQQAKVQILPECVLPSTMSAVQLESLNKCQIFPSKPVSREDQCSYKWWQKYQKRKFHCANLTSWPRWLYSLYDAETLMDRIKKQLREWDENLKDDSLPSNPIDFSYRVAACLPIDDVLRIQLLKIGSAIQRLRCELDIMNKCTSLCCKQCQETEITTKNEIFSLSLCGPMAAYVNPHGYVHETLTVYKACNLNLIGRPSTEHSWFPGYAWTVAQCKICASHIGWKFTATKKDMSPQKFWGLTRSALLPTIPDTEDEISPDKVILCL
His-tagged CRBN-DDB1 complex, sequence (Q16531 whole entry partner): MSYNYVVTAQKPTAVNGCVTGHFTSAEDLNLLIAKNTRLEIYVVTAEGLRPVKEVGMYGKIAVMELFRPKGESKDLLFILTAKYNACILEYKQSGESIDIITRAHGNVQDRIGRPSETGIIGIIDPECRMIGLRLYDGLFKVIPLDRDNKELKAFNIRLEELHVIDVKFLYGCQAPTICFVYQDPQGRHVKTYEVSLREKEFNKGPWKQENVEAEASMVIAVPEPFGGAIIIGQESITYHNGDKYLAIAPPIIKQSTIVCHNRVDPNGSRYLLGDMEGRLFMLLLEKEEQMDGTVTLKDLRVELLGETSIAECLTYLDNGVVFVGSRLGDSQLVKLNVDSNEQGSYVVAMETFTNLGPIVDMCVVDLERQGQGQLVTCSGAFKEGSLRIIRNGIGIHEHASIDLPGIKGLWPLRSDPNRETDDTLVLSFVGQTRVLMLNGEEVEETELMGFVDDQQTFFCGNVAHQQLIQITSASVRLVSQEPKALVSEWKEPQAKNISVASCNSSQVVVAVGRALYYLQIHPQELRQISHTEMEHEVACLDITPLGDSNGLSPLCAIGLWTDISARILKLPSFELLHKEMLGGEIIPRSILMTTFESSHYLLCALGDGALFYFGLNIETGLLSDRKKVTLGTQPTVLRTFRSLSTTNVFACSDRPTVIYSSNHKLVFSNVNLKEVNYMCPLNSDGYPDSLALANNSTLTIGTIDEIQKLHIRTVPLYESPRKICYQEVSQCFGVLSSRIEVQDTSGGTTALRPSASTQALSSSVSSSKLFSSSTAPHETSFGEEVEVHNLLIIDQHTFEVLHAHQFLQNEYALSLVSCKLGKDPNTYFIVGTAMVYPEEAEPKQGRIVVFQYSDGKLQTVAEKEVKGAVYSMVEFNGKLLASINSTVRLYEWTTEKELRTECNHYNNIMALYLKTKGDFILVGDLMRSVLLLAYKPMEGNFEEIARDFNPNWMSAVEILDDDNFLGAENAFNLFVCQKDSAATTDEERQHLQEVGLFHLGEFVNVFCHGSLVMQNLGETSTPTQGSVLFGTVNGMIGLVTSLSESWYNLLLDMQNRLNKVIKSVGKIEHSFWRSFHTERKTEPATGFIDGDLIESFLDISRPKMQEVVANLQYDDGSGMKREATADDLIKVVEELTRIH

SMILES | pIC50
O=C1CCC(N2C(=O)CN=C(c3ccccc3)c3ccccc32)C(=O)N1 (stereo not drawn) [I-41] | 4.00 to 4.52

Same assay, conditions: read-out: CRBN HTRF IC50

SMILES | pIC50
O=C1CCC(n2c3ccccc3c3ccccc32)C(=O)N1 (stereo not drawn) [I-1, 3-(9H-Carbazol-9-yl)piperidine-2,6-dione] | 4.52 to 5.00
O=C1CCC(n2c3ccccc3c3cccnc32)C(=O)N1 (stereo not drawn) [I-2, 3-(9H-pyrido[2,3-b]indol-9-yl)piperidine-2,6-dione] | > 5.00
O=C1CCC(n2c3ncccc3c3cccnc32)C(=O)N1 (stereo not drawn) [I-3, 3-(9H-pyrrolo[2,3-b:5,4-b′]dipyridin-9-yl)piperidine-2,6-dione] | 4.00 to 4.52
Nc1ccc2c(c1)c1cccnc1n2C1CCC(=O)NC1=O (stereo not drawn) [I-5, 3-(6-Amino-9H-pyrido[2,3-b]indol-9-yl)piperidine-2,6-dione] | > 5.00
CC(=O)Nc1ccc2c(c1)c1cccnc1n2C1CCC(=O)NC1=O (stereo not drawn) [I-8, N-(9-(2,6-Dioxopiperidin-3-yl)-9H-pyrido[2,3-b]indol-6-yl)acetamide] | > 5.00
CCNC(=O)Nc1ccc2c(c1)c1cccnc1n2C1CCC(=O)NC1=O (stereo not drawn) [I-9, 1-(9-(2,6-Dioxopiperidin-3-yl)-9H-pyrido[2,3-b]indol-6-yl)-3-ethylurea] | > 5.00
O=C1CCC(n2c3ccc(Br)cc3c3cccnc32)C(=O)N1 (stereo not drawn) [I-26, 3-(6-Bromo-9H-pyrido[2,3-b]indol-9-yl)piperidine-2,6-dione] | > 5.00
CNc1ccc2c(c1)c1cccnc1n2C1CCC(=O)NC1=O (stereo not drawn) [I-27, 3-(6-(methylamino)-9H-pyrido[2,3-b]indol-9-yl)piperidine-2,6-dione] | > 5.00
CN(C)c1ccc2c(c1)c1cccnc1n2C1CCC(=O)NC1=O (stereo not drawn) [I-28, 3-(6-(Dimethylamino)-9H-pyrido[2,3-b]indol-9-yl)piperidine-2,6-dione] | > 5.00
CCOC(=O)Nc1ccc2c(c1)c1cccnc1n2C1CCC(=O)NC1=O (stereo not drawn) [I-29, ethyl (9-(2,6-dioxopiperidin-3-yl)-9H-pyrido[2,3-b]indol-6-yl)carbamate] | 4.52 to 5.00
O=C1CCC(n2c3cccc(Br)c3c3cccnc32)C(=O)N1 (stereo not drawn) [I-30] | > 5.00
O=C1CCC(n2c3ccccc3c3c(Br)ccnc32)C(=O)N1 (stereo not drawn) [I-31] | > 5.00
N#Cc1ccc2c(c1)c1cccnc1n2C1CCC(=O)NC1=O (stereo not drawn) [I-32] | 4.52 to 5.00
CC(C)(C)OC(=O)NCCOCC#Cc1ccc2c(c1)c1cccnc1n2C1CCC(=O)NC1=O (stereo not drawn) [I-33, tert-Butyl (2-((3-(9-(2,6-dioxopiperidin-3-yl)-9H-pyrido[2,3-b]indol-6-yl)prop-2-yn-1-yl)oxy)ethyl)carbamate] | > 5.00
CC(C)(C)OC(=O)NCCOCCCc1ccc2c(c1)c1cccnc1n2C1CCC(=O)NC1=O (stereo not drawn) [I-34, tert-butyl (2-(3-(9-(2,6-dioxopiperidin-3-yl)-9H-pyrido[2,3-b]indol-6-yl)propoxy)ethyl)carbamate] | > 5.00
CC(C)(C)OC(=O)NCCOCCOCCNc1ccc2c(c1)c1cccnc1n2C1CCC(=O)NC1=O (stereo not drawn) [I-35, tert-butyl (2-(2-(2-((9-(2,6-dioxopiperidin-3-yl)-9H-pyrido[2,3-b]indol-6-yl)amino)ethoxy)ethoxy)ethyl)carbamate] | > 5.00
CC(C)(C)OC(=O)NCCOCCOCC(=O)NCc1ccc2c(c1)c1cccnc1n2C1CCC(=O)NC1=O (stereo not drawn) [I-36, tert-butyl (2-(2-(2-(((9-(2,6-dioxopiperidin-3-yl)-9H-pyrido[2,3-b]indol-6-yl)methyl)amino)-2-oxoethoxy)ethoxy)ethyl)carbamate] | > 5.00
CC(C)(C)OC(=O)NCCOCCNC(=O)NCc1ccc2c(c1)c1cccnc1n2C1CCC(=O)NC1=O (stereo not drawn) [I-37, tert-butyl (2-(2-(3-((9-(2,6-dioxopiperidin-3-yl)-9H-pyrido[2,3-b]indol-6-yl)methyl)ureido)ethoxy)ethyl)carbamate] | 4.52 to 5.00
CC(C)(C)OC(=O)NCCOCCOC(=O)NCc1ccc2c(c1)c1cccnc1n2C1CCC(=O)NC1=O (stereo not drawn) [I-38, 2-(2-((tert-butoxycarbonyl)amino)ethoxy)ethyl ((9-(2,6-dioxopiperidin-3-yl)-9H-pyrido[2,3-b]indol-6-yl)methyl)carbamate] | > 5.00

SMILES | pIC50
Nc1cnc2c(c1)c1ccccc1n2C1CCC(=O)NC1=O (stereo not drawn) [I-39, 3-(3-amino-9H-pyrido[2,3-b]indol-9-yl)piperidine-2,6-dione] | > 5.00
CC(C)(C)OC(=O)N1CCc2c(c3cccnc3n2C2CCC(=O)NC2=O)C1 (stereo not drawn) [I-40, tert-butyl 9-(2,6-dioxopiperidin-3-yl)-7,8-dihydro-5H-pyrrolo[2,3-b:4,5-c′]dipyridine-6(9H)-carboxylate] | 4.52 to 5.00
O=C1CCC(n2c3ccccc3c3ccncc32)C(=O)N1 (stereo not drawn) [I-42] | < 4.00
O=C1CCC(n2c3ccccc3c3cnccc32)C(=O)N1 (stereo not drawn) [I-43] | 4.00 to 4.52
CN(CCCOCCCc1ccc2c(c1)c1cccnc1n2C1CCC(=O)NC1=O)C(=O)OC(C)(C)C (stereo not drawn) [I-44] | > 5.00
CN(CCCOCC#Cc1ccc2c(c1)c1cccnc1n2C1CCC(=O)NC1=O)C(=O)OC(C)(C)C (stereo not drawn) [I-45] | 4.52 to 5.00
O=C1CCC(n2c3ccc(CCCOCCOCCO)cc3c3cccnc32)C(=O)N1 (stereo not drawn) [I-46] | > 5.00
O=C1CCC(n2c3ccc(C#CCOCCOCCOCc4ccccc4)cc3c3cccnc32)C(=O)N1 (stereo not drawn) [I-47] | > 5.00
O=C1CCC(n2c3ccccc3c3c(CCCOCCOCCO)ccnc32)C(=O)N1 (stereo not drawn) [I-48] | > 5.00
O=C1CCC(n2c3ccccc3c3c(C#CCOCCOCCOCc4ccccc4)ccnc32)C(=O)N1 (stereo not drawn) [I-49] | > 5.00
O=C1CCC(n2c3ccc(NCCOCCOCCOCc4ccccc4)cc3c3cccnc32)C(=O)N1 (stereo not drawn) [I-50] | > 5.00
O=C1CCC(n2c3cccc(CCCOCCOCCO)c3c3cccnc32)C(=O)N1 (stereo not drawn) [I-51] | > 5.00
O=C1CCC(n2c3cccc(C#CCOCCOCCOCc4ccccc4)c3c3cccnc32)C(=O)N1 (stereo not drawn) [I-52] | > 5.00
O=C1CCC(n2c3cc(CCCOCCOCCO)ccc3c3cccnc32)C(=O)N1 (stereo not drawn) [I-53] | 4.52 to 5.00
O=C1CCC(n2c3ccccc3c3cc(CCCOCCOCCO)cnc32)C(=O)N1 (stereo not drawn) [I-54, 3-(3-(3-(2-(2-hydroxyethoxy)ethoxy)propyl)-9H-pyrido[2,3-b]indol-9-yl)piperidine-2,6-dione] | 4.52 to 5.00
O=C1CCC(n2c3c(c4cccnc42)CN(Cc2ccccc2)CC3)C(=O)N1 (stereo not drawn) [I-55, 3-(6-benzyl-7,8-dihydro-5H-pyrrolo[2,3-b:4,5-c′]dipyridin-9(6H)-yl)piperidine-2,6-dione] | 4.00 to 4.52
O=C1CCC(n2c3ccncc3c3cccnc32)C(=O)N1 (stereo not drawn) [I-56, 3-(9H-pyrrolo[2,3-b:4,5-c′]dipyridin-9-yl)piperidine-2,6-dione] | 4.52 to 5.00
CC(C)(C)OC(=O)NCCOCCOCCCc1ccnc2c1c1ccccc1n2C1CCC(=O)NC1=O (stereo not drawn) [I-57] | > 5.00
CC(C)(C)OC(=O)NCCOCCOCCCc1ccc2c3cccnc3n(C3CCC(=O)NC3=O)c2c1 (stereo not drawn) [I-58] | 4.52 to 5.00

SMILES | pIC50
NCCOCCOCCCc1cnc2c(c1)c1ccccc1n2C1CCC(=O)NC1=O (stereo not drawn) [I-59, 3-(3-(3-(2-(2-aminoethoxy)ethoxy)propyl)-9H-pyrido[2,3-b]indol-9-yl)piperidine-2,6-dione] | > 5.00
CC(C)(C)OC(=O)NCCOCCOCCCc1cccc2c1c1cccnc1n2C1CCC(=O)NC1=O (stereo not drawn) [I-60] | > 5.00
CC(C)(C)OC(=O)NCCOCCOCC#Cc1cccc2c1c1cccnc1n2C1CCC(=O)NC1=O (stereo not drawn) [I-61] | > 5.00
CC(C)(C)OC(=O)NCCOCCOCCCc1ccc2c(c1)c1cccnc1n2C1CCC(=O)NC1=O (stereo not drawn) [I-62] | > 5.00
CC(C)(C)OC(=O)NCCOCCOCC#Cc1ccc2c(c1)c1cccnc1n2C1CCC(=O)NC1=O (stereo not drawn) [I-63] | > 5.00
CC(C)(C)OC(=O)N1CCN(CCc2ccc3c(c2)c2cccnc2n3C2CCC(=O)NC2=O)CC1 (stereo not drawn) [I-64, tert-butyl 4-(2-(9-(2,6-dioxopiperidin-3-yl)-9H-pyrido[2,3-b]indol-6-yl)ethyl)piperazine-1-carboxylate] | > 5.00
COc1nccc2c3ccccc3n(C3CCC(=O)NC3=O)c12 (stereo not drawn) [I-65] | 4.00 to 4.52
O=C1CCC(n2c3ccccc3c3scnc32)C(=O)N1 (stereo not drawn) [I-66] | 4.52 to 5.00
O=C1CCC(n2c3ccccc3c3cncnc32)C(=O)N1 (stereo not drawn) [I-67] | 4.52 to 5.00
O=C1CCC(n2c3c(c4cccnc42)CN(C(=O)CCCCCCCCO)CC3)C(=O)N1 (stereo not drawn) [I-68, 3-(6-(9-hydroxynonanoyl)-5,6,7,8-tetrahydro-9H-pyrrolo[2,3-b:4,5-c′]dipyridin-9-yl)piperidine-2,6-dione] | 4.00 to 4.52
O=C1CCC(n2c3cnccc3c3cccnc32)C(=O)N1 (stereo not drawn) [I-69, 3-(9H-pyrrolo[2,3-b:5,4-c′]dipyridin-9-yl)piperidine-2,6-dione] | < 4.00
O=C1CCC(n2c3c(c4cccnc42)CCCC3)C(=O)N1 (stereo not drawn) [I-70] | 4.52 to 5.00
CC(C)(C)OC(=O)NC1CCN(CCc2ccc3c(c2)c2cccnc2n3C2CCC(=O)NC2=O)CC1 (stereo not drawn) [I-71, tert-butyl (1-(2-(9-(2,6-dioxopiperidin-3-yl)-9H-pyrido[2,3-b]indol-6-yl)ethyl)piperidin-4-yl)carbamate] | > 5.00
O=C1CCC(n2c3ccccc3c3ccsc32)C(=O)N1 (stereo not drawn) [I-72] | > 5.00
CC(C)(C)OC(=O)NCCOCCOCCCc1ccc2c3ccccc3n(C3CCC(=O)NC3=O)c2n1 (stereo not drawn) [I-73] | 4.52 to 5.00
CC(C)(C)OC(=O)NCCOCCOCC#Cc1ccc2c3ccccc3n(C3CCC(=O)NC3=O)c2n1 (stereo not drawn) [I-74] | 4.52 to 5.00
O=C1CCC(n2c3ccccc3c3ccc(Cl)nc32)C(=O)N1 (stereo not drawn) [I-75] | > 5.00
N#Cc1ccnc2c1c1ccccc1n2C1CCC(=O)NC1=O (stereo not drawn) [I-76, 9-(2,6-dioxopiperidin-3-yl)-9H-pyrido[2,3-b]indole-4-carbonitrile] | > 5.00
